# In ChEMBL document CHEMBL1275483, “Staphylococcus aureus cell wall stress stimulon gene-lacZ fusion strains: potential for use in screening for cell wall-active antimicrobials” (2008):
# The source made the active and inactive calls. The rule behind the calls is not given here.
# Columns and labels:
# Staphylococcus aureus [1] = experiment: Induction of PvraSr::lacZ gene expression in Staphylococcus aureus SH1000 at 1 ug/ml after 2 hrs by beta-galactosidase reporter gene assay relative to untreated control; assay type: functional
# Staphylococcus aureus [2] = experiment: Induction of PlytR::lacZ gene expression in Staphylococcus aureus SH1000 at 1 ug/ml after 2 hrs by beta-galactosidase reporter gene assay relative to untreated control; assay type: functional
# Staphylococcus aureus [3] = experiment: Induction of PsgtB::lacZ gene expression in Staphylococcus aureus SH1000 at 1 ug/ml after 2 hrs by beta-galactosidase reporter gene assay relative to untreated control; assay type: functional
# Staphylococcus aureus [4] = experiment: Induction of Ppbp2::lacZ gene expression in Staphylococcus aureus SH1000 at 1 ug/ml after 2 hrs by beta-galactosidase reporter gene assay relative to untreated control; assay type: functional
# Staphylococcus aureus [5] = experiment: Induction of PtcaA::lacZ gene expression in Staphylococcus aureus SH1000 at 1 ug/ml after 2 hrs by beta-galactosidase reporter gene assay relative to untreated control; assay type: functional
# Staphylococcus aureus [6] = experiment: Induction of PsgtB::lacZ gene expression in Staphylococcus aureus SH1000 at 2 ug/ml after 2 hrs by beta-galactosidase reporter gene assay relative to untreated control; assay type: functional
# Staphylococcus aureus [7] = experiment: Induction of Ppbp2::lacZ gene expression in Staphylococcus aureus SH1000 at 2 ug/ml after 2 hrs by beta-galactosidase reporter gene assay relative to untreated control; assay type: functional
# Staphylococcus aureus [8] = experiment: Induction of PtcaA::lacZ gene expression in Staphylococcus aureus SH1000 at 2 ug/ml after 2 hrs by beta-galactosidase reporter gene assay relative to untreated control; assay type: functional
# Staphylococcus aureus [9] = experiment: Induction of PvraSr::lacZ gene expression in Staphylococcus aureus SH1000 at 2 ug/ml after 2 hrs by beta-galactosidase reporter gene assay relative to untreated control; assay type: functional
# Staphylococcus aureus [10] = experiment: Induction of PlytR::lacZ gene expression in Staphylococcus aureus SH1000 at 2 ug/ml after 2 hrs by beta-galactosidase reporter gene assay relative to untreated control; assay type: functional
# Staphylococcus aureus [11] = experiment: Antimicrobial activity against beta-lactamase producing Staphylococcus aureus SH1000; assay type: functional
# Staphylococcus aureus [12] = experiment: Induction of PvraSr::lacZ gene expression in Staphylococcus aureus SH1000 at 8 ug/ml after 2 hrs by beta-galactosidase reporter gene assay relative to untreated control; assay type: functional, organism-based
# Staphylococcus aureus [13] = experiment: Induction of Ppbp2::lacZ gene expression in Staphylococcus aureus SH1000 at 0.3 ug/ml after 0.5 hrs by beta-galactosidase reporter gene assay relative to untreated control; assay type: functional, organism-based
# Staphylococcus aureus [14] = experiment: Induction of PtcaA::lacZ gene expression in Staphylococcus aureus SH1000 at 8 ug/ml after 2 hrs by beta-galactosidase reporter gene assay relative to untreated control; assay type: functional, organism-based
# Staphylococcus aureus [15] = experiment: Induction of PsgtB::lacZ gene expression in Staphylococcus aureus SH1000 at 8 ug/ml after 2 hrs by beta-galactosidase reporter gene assay relative to untreated control; assay type: functional, organism-based
# Staphylococcus aureus [16] = experiment: Induction of PlytR::lacZ gene expression in Staphylococcus aureus SH1000 at 8 ug/ml after 2 hrs by beta-galactosidase reporter gene assay relative to untreated control; assay type: functional, organism-based
# Staphylococcus aureus [17] = experiment: Induction of Ppbp2::lacZ gene expression in Staphylococcus aureus SH1000 at 8 ug/ml after 2 hrs by beta-galactosidase reporter gene assay relative to untreated control; assay type: functional, organism-based
# Staphylococcus aureus [18] = experiment: Induction of PsgtB::lacZ gene expression in Staphylococcus aureus SH1000 at 3 ug/ml after 2 hrs by beta-galactosidase reporter gene assay relative to untreated control; assay type: functional
# Staphylococcus aureus [19] = experiment: Induction of PvraSr::lacZ gene expression in Staphylococcus aureus SH1000 at 3 ug/ml after 2 hrs by beta-galactosidase reporter gene assay relative to untreated control; assay type: functional
# Staphylococcus aureus [20] = experiment: Induction of PlytR::lacZ gene expression in Staphylococcus aureus SH1000 at 3 ug/ml after 2 hrs by beta-galactosidase reporter gene assay relative to untreated control; assay type: functional
# Staphylococcus aureus [21] = experiment: Induction of Ppbp2::lacZ gene expression in Staphylococcus aureus SH1000 at 3 ug/ml after 2 hrs by beta-galactosidase reporter gene assay relative to untreated control; assay type: functional
# Staphylococcus aureus [22] = experiment: Induction of PtcaA::lacZ gene expression in Staphylococcus aureus SH1000 at 3 ug/ml after 2 hrs by beta-galactosidase reporter gene assay relative to untreated control; assay type: functional
# Staphylococcus aureus [23] = experiment: Induction of Ppbp2::lacZ gene expression in Staphylococcus aureus SH1000 at 2.5 ug/ml after 2 hrs by beta-galactosidase reporter gene assay relative to untreated control; assay type: functional
# Staphylococcus aureus [24] = experiment: Induction of PlytR::lacZ gene expression in Staphylococcus aureus SH1000 at 2.5 ug/ml after 2 hrs by beta-galactosidase reporter gene assay relative to untreated control; assay type: functional
# Staphylococcus aureus [25] = experiment: Induction of PtcaA::lacZ gene expression in Staphylococcus aureus SH1000 at 2.5 ug/ml after 2 hrs by beta-galactosidase reporter gene assay relative to untreated control; assay type: functional
# Staphylococcus aureus [26] = experiment: Induction of PvraSr::lacZ gene expression in Staphylococcus aureus SH1000 at 2.5 ug/ml after 2 hrs by beta-galactosidase reporter gene assay relative to untreated control; assay type: functional
# Staphylococcus aureus [27] = experiment: Induction of PsgtB::lacZ gene expression in Staphylococcus aureus SH1000 at 2.5 ug/ml after 2 hrs by beta-galactosidase reporter gene assay relative to untreated control; assay type: functional
smiles,measurement,setting,value
C=C(NC(=O)[C@@H](NC(=O)[C@H](Cc1cnc[nH]1)NC(=O)[C@@H](NC(=O)[C@H](CO)NC(=O)[C@@H]1CS[C@@H](C)[C@H]2NC(=O)C(=C)NC(=O)[C@H](NC(=O)[C@H](CCCCN)NC(=O)[C@H](CCSC)NC(=O)[C@H](CC(N)=O)NC(=O)[C@@H]3CS[C@@H](C)[C@@H](NC(=O)[C@H](CCCNN)NC(=O)[C@@H]4CS[C@@H](C)[C@@H](NC(=O)[C@@H]5CSC[C@@H](NC(=O)/C(=C\C)NC(=O)[C@@H](N)[C@@H](C)CC)C(=O)N[C@@H]([C@@H](C)CC)C(=O)NC(=C)C(=O)N[C@@H]([C@@H](C)CC)C(=O)N5)C(=O)N5CCC[C@H]5C(=O)NCC(=O)N4)C(=O)NCC(=O)N[C@@H](C)C(=O)N[C@@H]([C@@H](C)CC)C(=O)N[C@@H](CCSC)C(=O)NCC(=O)N3)[C@H](C)SC[C@H](NC2=O)C(=O)N[C@H](Cc2cnc[nH]2)C(=O)N1)[C@@H](C)CC)C(C)C)C(=O)N[C@@H](CCCCN)C(=O)O [NISIN],fold change (FC),Staphylococcus aureus [1],0.57
same,fold change (FC),Staphylococcus aureus [2],1.21
same,fold change (FC),Staphylococcus aureus [3],1.02
same,fold change (FC),Staphylococcus aureus [4],1.02
same,fold change (FC),Staphylococcus aureus [5],0.97
CN(C)[C@@H]1C(O)=C(C(N)=O)C(=O)[C@@]2(O)C(O)=C3C(=O)c4c(O)cccc4[C@@](C)(O)[C@H]3C[C@@H]12 [TETRACYCLINE],fold change (FC),Staphylococcus aureus [6],0.4
same,fold change (FC),Staphylococcus aureus [7],0.52
same,fold change (FC),Staphylococcus aureus [8],0.53
same,fold change (FC),Staphylococcus aureus [9],0.52
same,fold change (FC),Staphylococcus aureus [10],0.5
same,MIC,Staphylococcus aureus [11],0.5 µg/mL
Cc1onc(-c2ccccc2)c1C(=O)N[C@@H]1C(=O)N2[C@@H]1SC(C)(C)[C@@H]2C(=O)O [OXACILLIN],Activity,Staphylococcus aureus [12],Active
same,Activity,Staphylococcus aureus [13],Active
same,Activity,Staphylococcus aureus [14],Active
same,Activity,Staphylococcus aureus [15],Active
same,MIC,Staphylococcus aureus [11],1 µg/mL
same,Activity,Staphylococcus aureus [16],Active
same,Activity,Staphylococcus aureus [17],Active
CN[C@@H]1[C@H](O[C@H]2[C@H](O[C@H]3[C@H](O)[C@@H](O)[C@H](N=C(N)N)[C@@H](O)[C@@H]3N=C(N)N)O[C@@H](C)[C@]2(O)C=O)O[C@@H](CO)[C@H](O)[C@H]1O [STREPTOMYCIN],fold change (FC),Staphylococcus aureus [18],0.41
same,fold change (FC),Staphylococcus aureus [19],0.96
same,fold change (FC),Staphylococcus aureus [20],0.7
same,fold change (FC),Staphylococcus aureus [21],0.3
same,fold change (FC),Staphylococcus aureus [22],0.79
same,MIC,Staphylococcus aureus [11],1.5 µg/mL
CC[C@H]1OC(=O)[C@H](C)[C@@H](O[C@H]2C[C@@](C)(OC)[C@@H](O)[C@H](C)O2)[C@H](C)[C@@H](O[C@@H]2O[C@H](C)C[C@H](N(C)C)[C@H]2O)[C@](C)(O)C[C@@H](C)C(=O)[C@H](C)[C@@H](O)[C@]1(C)O [ERYTHROMYCIN],fold change (FC),Staphylococcus aureus [23],1.15
same,fold change (FC),Staphylococcus aureus [24],1.04
same,fold change (FC),Staphylococcus aureus [25],1.12
same,fold change (FC),Staphylococcus aureus [26],0.8
same,MIC,Staphylococcus aureus [11],2 µg/mL
same,fold change (FC),Staphylococcus aureus [27],0.93
